These results are taken from patent publication US20230248029A1, “Single-Serving Beverage Ingredient Containers Comprising Nanoparticulate Cannabidiol” (priority 2022, published 2023).

Data set [1] can be described thus: CBD extraction in brewed coffee beverage, pure CBD powder (HPLC). The data set is classed as physicochemical. The text has this:
To test the extraction efficiency of pure CBD powder in a coffee brewing process, the foil lids of each of several single-serving coffee containers adapted for use in a Keurig single-serving coffee machine were peeled back, a small depression was made in the top of the coffee grounds, and a measured quantity of CBD powder was placed in the depression. The foil lids were then resealed, and the containers were shaken for 30 seconds to disperse the CBD powder throughout the mass of coffee grounds. Each of the containers was then used in a Keurig single-serving coffee machine to brew either a 160 mL coffee beverage or a 300 mL coffee beverage. Mixing the CBD powder throughout the coffee grounds allowed the CBD to melt as hot water flowed downward from the top of the container and through the mass of coffee grounds during the coffee brewing process; relative to simply disposing the CBD powder in the bottom of the container, this reduces the amount of CBD extracted into the coffee beverage but improves the extent to which the CBD is mixed and dispersed with other chemical components extracted with the coffee, thereby inhibiting the formation of a CBD film in the brewed coffee beverage.
For each brewed coffee beverage, the beverage was poured into three separate bottles; a small sample was taken from each bottle and diluted in 10× (by volume) ethanol. This mixture was then shaken and centrifuged to remove coffee components and dissolve the CBD. The supernatant was removed from the centrifuged samples and measured by high-performance liquid chromatography using an Agilent Zorbax Eclipse XDB-C8 column. The mobile phase was a 1 mL/min gradient of 70:30 (vol/vol) acetonitrile:water to 80:20 (vol/vol) acetonitrile:water over 8 minutes. A 20 μL injection was used and the column was kept at 25° C. Absorbance was measured at 210 nm with a 5 nm bandwidth.

Data set [2] can be described thus: CBD film formation on the surface of the brewed coffee beverage (visual). The data set is classed as physicochemical. The note with it: Keurig-brewed coffee beverage, visual (FIG. 5A, 5B). The source says: This variability is expected due to the difference in particle size between the CBD powder and the ground coffee, which makes uniform dispersion of the CBD powder throughout the coffee grounds difficult.
Without wishing to be bound by any particular theory, the present inventors hypothesize that more concentrated droplets may be effective to increase the CBD extraction from F68 formulations.
This is because, in the use of Keurig single-serving coffee machines (and in conventional drip coffee makers), the water used is at or near its boiling point, which in any event is much higher than the melting point of CBD (66° C.), and the colloid droplets therefore cannot resist these high temperatures, causing coalescence of the CBD. In some embodiments, therefore, it may be desirable to brew the coffee beverage at a lower temperature, or to brew a conventional (non-CBD-containing) coffee beverage at typical near-boiling temperatures and then mix in a CBD colloid as described herein after the coffee beverage has cooled to below the melting point of CBD (but still at or above the temperature at which the consumer desires to consume the coffee, which on average is about 60° C.); it is to be expressly understood that such embodiments are within the scope of the present disclosure.

For data set [3] the following is noted: oral; cited from earlier work.
[4] abbreviates: CBD mass 50 mg, beverage volume 160 mL.
Where [5] appears, read: CBD mass 50 mg, beverage volume 300 mL.
Setting [6] is: CBD mass 75 mg, beverage volume 160 mL.
Setting [7] is: CBD mass 75 mg, beverage volume 300 mL.
The mark [8] stands for this setting: CBD mass 100 mg, beverage volume 160 mL.
Setting [9] is: CBD mass 100 mg, beverage volume 300 mL.

On to `C=C(C)[C@@H]1CCC(C)=C[C@H]1c1c(O)cc(CCCCC)cc1O` [CBD, cannabidiol], for which the CBD extraction in data set [1] (setting [4]) is 22.0 ± 9.6%; in data set [1] (setting [5]) it was 42.1 ± 10.0%; in data set [1] (setting [6]), 8.3 ± 6.2%; in data set [1] (setting [7]) it was 15.8 ± 5.2%; in data set [1] (setting [8]) it was 21.0 ± 14.8%; in data set [1] (setting [9]), 11.9 ± 3.5%. Further, the CBD in beverage is on record as 8.9 ± 4.4 mg in data set [1] (setting [4]); 20.3 ± 5.9 mg in data set [1] (setting [5]); 11.3 ± 4.8 mg in data set [1] (setting [6]); 11.9 ± 3.9 mg in data set [1] (setting [7]); 21.0 ± 14.8 mg in data set [1] (setting [8]); 11.9 ± 3.5 mg in data set [1] (setting [9]). Besides, the “CBD film formation in the brewed coffee beverage” value in data set [2] is given as “large, thick films”. For the same molecule, in data set [3], the “Maximum theoretical bioavailability of orally administered CBD” value was 19%.
